Here are results for nine molecules from US9018176B2, “Inducers of hematopoiesis and fetal globin production for treatment of cytopenias and hemoglobin disorders” (priority 2010, dated 2015).

The test system of data set [1] is γ-globin mRNA. The experiment in a line: γ-globin mRNA in cultured primary human erythroid progenitors (BFU-e), real-time PCR. It is filed as cell-based.
Data set [2] has as its system γ-globin mRNA. Described as above. Conditions: for γ-globin mRNA induction: cultured primary human erythroid progenitors, concentrations pharmacologically achievable in humans; for % induction of γ-globin mRNA gene expression: FIG. 4C, HFU-E (burst-forming units-erythroid) cells, Resveratrol 30 μM, desloratadine 50 μM, NSC 50 μM, Benserazine 5 μM; for effect in increasing % of γ-globin mRNA expression: FIG. 6, BFU-e cells, Desloratadine 3 μM, Benserazide 3 μM, NSC5397 0.6 μM. The format is cell-based. Here is the method:
Erythroid progenitors were cultured from cord blood CD34+ cells. […] Each compound was tested in three different cultures. […] On day 14, RNA was extracted from cultured erythroid cells, and relative quantification PCR was performed. Briefly, cDNA was generated from equal amounts of total RNA extracted using The PerfectPure RNA Purification Kit (5 Prime Inc Gaithersburg, Md.). Real-time PCR was performed using an ABI 7500 Real-Time PCR system (Applied Biosystems, Foster City, Calif.). Levels of globin mRNA were calculated by the ΔΔCt method. […] GAPDH levels were used for standardization. Western blotting Nuclear extract of K562 cells and 14-day-old BFU-e were analyzed by electrophoresis using 5-24% gradient SDS-polyacrylamide mini-gels (BIORAD Laboratories. Hercules Calif.). Proteins in the gels were transferred to Immobilon-P membranes. Blots were then incubated with BCL11A polyclonal (Novus Biologicals, Littleton Co) or mouse monoclonal (Santa Cruz Biotechnology, Santa Cruz Calif.) antibodies, after washing blots were incubated with anti-rabbit IgG-horseradish peroxidase secondary antibody (ECL, Little Chalfont Buckinghamshire UK). BCL11A bands were detected on the X-ray film using Western Lightning Reagents (Perking Elmer Inc, Waltham, Mass.).

For data set [3], the system named is γ-globin gene promoter. Kind of data set: Dual luciferase reporter assay (μLCRβprRlucAγprFluc cassette) in GM979 cells. The format is cell-based. Particulars: Resveratrol at 10 μM, MS-275 at 5 μM; for activity compared with sodium Butyrate: Ambroxol at 1 μM, Desloratadine at 1 μM, Benserazide at 0.03 μM (or a range of 30 nM-5 μM), NSC-95397 at 1 μM, versus sodium Butyrate at 2000 μM; for most active at inducing γ-globin mRNA expression: Benserazide at 0.03 μM. The text has this: Cell-based screen for γ-globin inducing compounds in GM979 cells (Skarpidi, et al. Blood 2000; 96:321-326). Mini-gene construct integrated into GM979 cell genome. The readout is Firefly/Renilla luciferase ratio, and is designed to identify only strong inducers of the γ-globin promoter, and specificity for the γ- vs. the […]γ-globin gene. This second assay confirmed 12/15 candidates.
This assay is […], and consists of a dual-luciferase reporter construct containing the LCR and the […] luciferase and the Aγ-globin promoter linked to firefly luciferase (μLCRβprRlucAγprFluc cassette), stably-transfected into GM979 cells. The orientation of the promoters and μLCR allowed detection only of strong, specific inducers of the γ-globin gene promoter. This assay is also been predictive of in vivo HbF-inducing activity.
The γ-globin-specificity of hits was determined in a secondary assay employing a stably-transfected dual-luciferase reporter construct containing the LCR and the β-globin promoter linked to renilla luciferase and the Aγ-globin promoter linked to firefly luciferase (μLCRβprRlucAγprFluc cassette) (FIG. 2B).
A general note: Reporter assays use an easily measured gene product as a stand-in for the process of interest.

The test system of data set [4] is γ-globin mRNA. The experiment in a line: γ-globin mRNA gene expression in K562 cells. Conditions: for % induction of γ-globin mRNA gene expression: FIGS. 4A and 4B, Resveratrol 30 μM, desloratadine 50 μM, NSC 50 μM, Benserazine 5 μM. It is filed as cell-based.
Data set [5] relates to CB BFU-E cells. Kind of data set: CB BFU-E cell proliferation (cells/colony). The procedure:
Fetal globin-inducing activity in human erythroid progenitors was assessed. Human erythroid progenitors were cultured from peripheral blood samples, exposed to the test compounds at varying concentrations and for varying durations and analyzed for globin chain mRNA ratios. Erythroid progenitors were cultured from cord blood CD34+ cells. Briefly, CD34+ cells in the human cord blood were separated using a Ficoll-paque density gradient. CD34+ cells were cultured in H4230 medium containing 2 mM L-glutamine, 1% Methylcellulose in Iscove's Medium, 30% Fetal Bovine Serum, 1% Bovine Serum Albumin and 10^-4 M β-mercaptoethanol. Methylcellulose H4230 medium was supplemented with EPO (0.5 U/ml) and IL-3 (20 ng/ml) to support BFU-e growth. Cells were cultured in […] mini-dishes and incubated in a humidified atmosphere containing 5% CO2, at 37° C. Different concentrations of the test compounds were added at the time the cultures were established. Each compound was tested in three different cultures. BFU-e colonies grown in mini-dishes were counted on day 14 and harvested for mRNA analysis.

For data set [6], the system named is red blood cell production. Kind of data set: Total hemoglobin and hematocrit in phlebotomized anemic baboons. It is filed as in vivo, baboons (Papio hamadryas anubis). Conditions: for total hemoglobin levels: MS-275 as. Here is the method: (§1) Studies to evaluate pharmacokinetic properties and γ-globin induction were performed in juvenile baboons (Papio hamadryas anubis). Briefly, animals were chronically phlebotomized on a daily basis to achieve stable anemia, maintaining a total hemoglobin level of 7.0 to 7.5 g/dl. Candidate compounds were administered intravenously or orally once daily in single doses for pharmacokinetic studies, or once daily in single doses, 4-5 days per week for 4-5 weeks, for pharmacodynamic studies. […] Levels of γ-globin mRNA expression and globin chain synthesis were assessed in baboons before and during treatment with test compounds. A washout period between administrations of different compounds in the same baboon was provided.
(§2) Chronically catheterized baboons were phlebotomized daily to create chronic anemia with total hemoglobin levels (Hb) between 7.0 to 7.5 g/dl which simulates the expanded erythropoiesis and anemia in sickle cell disease and beta thalassemia. Blood counts were drawn and total Hb (hemoglobin) and reticulocytes were analyzed on a hemavet analyzer. Fetal globin mRNA was analyzed by RT-PCR and proportions for f-cells were analyzed by flow cytometry. […] Desloratidine (0.6 mg/kg) was administered for 4 days following a washout period. Blood counts were obtained at least 3 days/week.
Baboon 1509 (weight 10.9 kg) was phlebotomized to induce anemia and marrow expansion, similar to the hemoglobin disorders.

Data set [7] deals with γ-globin. The experiment in a line: Fetal globin (γ-globin mRNA, HbF) induction in phlebotomized anemic baboons. The format is in vivo, baboons (Papio hamadryas anubis). Particulars: for fetal globin mRNA: Benserazide 1 or 3 mg/kg in baboon 1509, MS-275 and desloratidine. The procedure:
as §1, §2
Baboons HL-25 and HD50 were phlebotomized daily to create anemia with erythroid expansion. When stably anemic, Desloratidine (0.6 mg/kg) was administered orally, fetal hemoglobin (HbF) protein levels were assayed.

For data set [8], the system named is cell viability. Conditions: cited from earlier work; for DNA fragmentation: fragmentation assays.
Data set [9] concerns system A transport of amino acids. Conditions: cited from earlier work.
Setting [10] is: Ambroxol 0.1-1 uM, Cord Blood progenitors.
Where [11] appears, read: Ambroxol 0.1-1 uM, Normal progenitors.
Setting [12] is: Benserazide 0.1-0.3 uM, Cord Blood progenitors.
[13] abbreviates: Benserazide 0.1-0.3 uM, Hemoglobin disorder progenitors.
The mark [14] stands for this setting: Benserazide 0.1-0.3 uM, Normal progenitors.
[15] abbreviates: Benserazide 1 or 3 mg/kg in baboon 1509.
The mark [16] stands for this setting: MS275 0.5 uM, Cord Blood progenitors.
Setting [17] is: MS275 0.5 uM, Normal progenitors.

“And” between values parts separate entries of the source, which are not always exact repeats. Equal values may be shown once. “Also recorded” adds a separate entry of the source.

On to `Nc1c(Br)cc(Br)cc1CN[C@H]1CC[C@H](O)CC1` [Ambroxol, ambroxol], for which the “fetal globin mRNA, Means” value in data set [1] (setting [10]) is given as 243 % of control; in data set [1] (setting [11]), 224 % of control. For the same molecule, the “responses (cultures with induced fetal globin mRNA)” value (from here on “responses”) in data set [1] (setting [10]) is given as 3/4; in data set [1] (setting [11]), 1/1. Besides, the “fetal globin mRNA, single cultures” value in data set [2] (setting [10]) was 302 % of control and 233 % of control and 193 % of control. In data set [2], the “γ-globin mRNA induction” value amounted to 3 fold. The “activity compared with sodium Butyrate” value in data set [3] was “significantly more active”.

`NC(CO)C(=O)NNCc1ccc(O)c(O)c1O` (stereo not shown) [Benserazide, 2-amino-3-hydroxy-N′-(2,3,4-trihydroxybenzyl)propanehydrazide]: the “fetal globin mRNA, Mean” value in data set [1] (setting [12]) was 300 % of control. Further, in data set [1] (setting [13]), the “fetal globin mRNA, Mean” value was 212 % of control and the “responses” value was 4/4. Besides, the “fetal globin mRNA, single subjects” value in data set [1] (Benserazide 0.1-0.3 uM, Hemoglobin disorder progenitors (subjects)) is 178 % of control and 143 % of control and 282 % of control and 128 % of control and 277.3 % of control. In data set [1] (setting [14]), the “fetal globin mRNA, Mean” value is listed as 151 % of control and the “responses” value is listed as 3/4. The “fetal globin mRNA, single subjects” value in [1] (Benserazide 0.1-0.3 uM, Normal progenitors (MB, JS, ABM)) is 115 % of control and 223 % of control and 114 % of control. Further, in [2] (setting [12]), the “responses” value is 4/5. For the same molecule, in data set [2], the “% induction of γ-globin mRNA gene expression” value (“% induction” for short) was “most significant % increase”, the “effect in increasing % of γ-globin mRNA expression” value is recorded as “greatest effect” and the “γ-globin mRNA induction” value is on record as “up to 5 fold”. Besides, the “concentrations that induce fetal globin (HbF) mRNA” value in [2] (primary erythroid progenitors in vitro) is 0.3 to 5.0 µM. In addition, the “% induction” value in [4] (K562 cells) is “most significant % increase”. In data set [5] (FIG. 8), the “number of blood cells per colony” value is given as “increase the number of blood cells per colony”. In addition, in [3], the “activity compared with sodium Butyrate” value is given as “significantly more active” and the “most active at inducing γ-globin mRNA expression” value is on record as “most active”. In addition, the “hemoglobin level after treatment” value in [6] (Baboon 1509, Benserazide 1 mg/kg then 2 mg/kg, by 2 weeks after administration, daily phlebotomy continued, before 7.6 g/dl) was found to be 8.9 g/dL. In [6] (Baboon 1509, Benserazide 1 mg/kg then 2 mg/kg, by 2 weeks after administration, daily phlebotomy continued, before 25.6%), the hematocrit after treatment was 28%. Further, in [6] (setting [15]), the blood cell proliferation entry was “increased blood cell proliferation” and the total hemoglobin levels entry is reported as “increased”. In data set [7] (Baboon 1509, Benserazide oral 2 mg/kg), the “Increase in γ-globin mRNA above baseline” value is on record as 193%. Besides, the “fetal globin mRNA” value in [7] is listed as “increased”.

The molecule `CCCC(=O)O` [Butyrate, butyrate] gave a concentration required in [5] (FIG. 8, comparator for the 3 drug candidates) of 200 µM.

With `Nc1ccccc1NC(=O)c1ccc(CNC(=O)OCc2cccnc2)cc1` [MS-275, N-(2-aminophenyl)-4-[N-(pyridin-3-yl-methoxycarbonyl)aminomethyl]benzamide], in data set [1] (setting [16]), the “fetal globin mRNA, Mean” value is reported as 345 % of control and the “responses” value was 2/2. Besides, in data set [1] (setting [17]), the “fetal globin mRNA, Mean” value was 394 % of control and the “responses” value is given as 5/6. Besides, the “fetal globin mRNA, single subjects” value in [1] (MS275 0.5 uM, Normal progenitors (MB, MB, JS, ABM, ABM)) was 680 % of control and 534 % of control and 168 % of control and 463 % of control and 126 % of control. Further, the “γ-globin induction compared with arginine butyrate” value in [2] (FIG. 13, MS-275 0.5 μM vs arginine butyrate 100 μM, progenitors from human sources with low or high basal HbF) is given as “higher activity; also recorded: greater”. Besides, the “γ-globin mRNA induction” value in [2] is “up to 3.7 fold”. The “γ-globin induction, dependence on dose” value in data set [4] (FIG. 10B, K562 cells) is reported as “dose-dependent”. Besides, in data set [3], the “activity compared with sodium Butyrate” value was “significantly more active” and the “most active at inducing γ-globin mRNA expression” value is listed as “most active”. Further, the total hemoglobin levels entry in data set [6] (setting [15]) is recorded as “increased”. For the same molecule, in data set [6] (FIG. 12B, MS-275 3 mg/m^2 for 4 days and 2 weeks vs ST20 2 and 4 days, desloratadine 0.6 mg/kg for two days), the “blood total hemoglobin (Hb) levels compared with positive control ST20 (150 mg/kg)” value is listed as “to a greater extent”. Also, the “Increase in γ-globin mRNA above baseline” value in [7] (Baboon HD50, MS-275 oral 0.18 mg/kg, 0.18 mg/kg) came out at 270%. For the same molecule, the “fetal globin mRNA” value in data set [7] is on record as “induced”. In addition, the “γ-globin mRNA expression in blood compared with positive control ST20 (150 mg/kg)” value in data set [7] (FIG. 12A, MS-275 3 mg/m^2 for 4 days and 2 weeks, desloratadine 0.6 mg/kg for two days vs ST20 after 2 or 4 days) was “to the same level”.

Turning to `O=C1C(SCCO)=C(SCCO)C(=O)c2ccccc21` [NSC-95397], the “% induction” value in data set [2] and in [4] (K562 cells) was “most significant % increase” in each case. The “effect in increasing % of γ-globin mRNA expression” value in data set [2] is “greatest effect”. Further, the “concentration giving the most γ-globin mRNA expression” value in [4] (FIG. 5, K562 cells, tested Desloratadine 10 μM-100 μM, Resveratrol 5 μM-30 μM, NSC 1 μM-50 μM) is 50 µM. Besides, in data set [3], the “activity compared with sodium Butyrate” value is “significantly more active”.

For `CCCC(=O)OCC` [butyric acid ethyl ester], the DNA fragmentation result in data set [8] was “reduce DNA fragmentation”.

As for `CC(C)C(N)=O` [isobutyramide], the cell viability result in data set [8] (DNA fragmentation assays) is given as “decrease cell viability”.

Regarding `O=C(O)COc1ccccc1` [phenoxyacetic acid], in data set [9], the “system A transport of amino acids” value is given as “do not significantly alter”. Moreover, the DNA fragmentation entry in data set [8] is “reduce DNA fragmentation”.

For the molecule `CC(=Cc1ccccc1)C(=O)O` [α-methyl cinnamic acid], the “system A transport of amino acids” value in [9] was “do not significantly alter”.
